In BindingDB's records for doi:10.1021/jm031011g (Xenova, 2004) one finds EC50 data, which are given here for three compounds.

Each structure is given as a SMILES string.

The target of test [1] is Multidrug resistance-associated protein 1 (Homo sapiens) (UniProt P33527). In words: Effective concentration to inhibit MRP1 in potentiation assay.
Test [2] has the same target. The description is as above. The source holds these as a separate data set.

Multidrug resistance-associated protein 1 (Homo sapiens), sequence (P33527 whole entry, looked up): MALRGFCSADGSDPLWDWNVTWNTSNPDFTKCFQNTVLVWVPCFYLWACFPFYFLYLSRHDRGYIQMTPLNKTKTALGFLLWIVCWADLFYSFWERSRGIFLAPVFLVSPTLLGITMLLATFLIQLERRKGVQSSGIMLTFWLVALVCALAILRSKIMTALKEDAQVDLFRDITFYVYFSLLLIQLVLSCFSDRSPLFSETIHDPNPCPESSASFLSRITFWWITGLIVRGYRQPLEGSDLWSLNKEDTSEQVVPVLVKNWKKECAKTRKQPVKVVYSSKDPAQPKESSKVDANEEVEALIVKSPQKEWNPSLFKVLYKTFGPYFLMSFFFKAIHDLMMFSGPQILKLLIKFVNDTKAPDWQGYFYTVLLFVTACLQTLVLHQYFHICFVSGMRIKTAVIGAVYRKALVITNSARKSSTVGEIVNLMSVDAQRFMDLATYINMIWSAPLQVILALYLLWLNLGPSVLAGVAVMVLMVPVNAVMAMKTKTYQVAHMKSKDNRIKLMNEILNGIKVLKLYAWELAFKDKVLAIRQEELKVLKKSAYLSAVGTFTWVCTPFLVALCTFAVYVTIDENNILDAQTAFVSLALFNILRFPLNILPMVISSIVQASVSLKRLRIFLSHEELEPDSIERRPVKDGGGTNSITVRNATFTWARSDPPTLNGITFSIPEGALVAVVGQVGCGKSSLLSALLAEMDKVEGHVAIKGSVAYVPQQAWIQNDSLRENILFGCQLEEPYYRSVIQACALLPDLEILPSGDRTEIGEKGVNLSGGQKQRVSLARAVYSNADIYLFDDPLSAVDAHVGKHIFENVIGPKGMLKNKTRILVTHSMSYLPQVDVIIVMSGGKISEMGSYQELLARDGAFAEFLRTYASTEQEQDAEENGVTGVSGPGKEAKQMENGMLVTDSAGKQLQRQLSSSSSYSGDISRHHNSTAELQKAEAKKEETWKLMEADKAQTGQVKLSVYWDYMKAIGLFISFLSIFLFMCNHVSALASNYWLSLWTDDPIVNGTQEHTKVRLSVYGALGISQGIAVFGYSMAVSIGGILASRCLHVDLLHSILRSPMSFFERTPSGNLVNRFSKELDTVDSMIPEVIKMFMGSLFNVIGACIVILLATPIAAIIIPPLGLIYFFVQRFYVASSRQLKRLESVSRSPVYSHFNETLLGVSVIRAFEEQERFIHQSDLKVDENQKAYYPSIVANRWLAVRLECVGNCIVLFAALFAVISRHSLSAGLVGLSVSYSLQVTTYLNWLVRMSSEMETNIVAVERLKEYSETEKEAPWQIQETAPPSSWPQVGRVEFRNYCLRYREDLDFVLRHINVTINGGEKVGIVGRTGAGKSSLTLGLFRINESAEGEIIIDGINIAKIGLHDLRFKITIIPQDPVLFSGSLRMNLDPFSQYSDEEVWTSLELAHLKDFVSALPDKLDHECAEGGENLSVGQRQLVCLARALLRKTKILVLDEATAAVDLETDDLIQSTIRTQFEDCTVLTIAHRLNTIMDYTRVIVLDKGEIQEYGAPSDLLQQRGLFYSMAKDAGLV

As for `COc1cccc(CNC(=O)c2c3n(c4c(N5CCN(CCc6ccc(F)c(F)c6)CC5)ncnc24)CCCC3)c1OC` [4-{4-[2-(3,4-Difluoro-phenyl)-ethyl]-piperazin-1-yl}-6,7,8,9-tetrahydro-pyrimido[4,5-b]indolizine-10-carboxylic acid 2,3-dimethoxy-benzylamide], the EC50 (commonly the concentration needed to bring the measured effect to its halfway point) in test [1] turned out to be 150 nM. Turning to `O=C(NCc1ccccn1)c1c2n(c3c(N4CCN(CCc5ccc(F)c(F)c5)CC4)ncnc13)CCCC2` [4-{4-[2-(3,4-Difluoro-phenyl)-ethyl]-piperazin-1-yl}-6,7,8,9-tetrahydro-pyrimido[4,5-b]indolizine-10-carboxylic acid (pyridin-2-ylmethyl)-amide], the half-maximal effective concentration (EC50) in test [2] was determined as 97 nM. `NC(=O)c1c2n(c3c(N4CCN(CCc5ccc(F)c(F)c5)CC4)ncnc13)CCCC2` [4-{4-[2-(3,4-Difluoro-phenyl)-ethyl]-piperazin-1-yl}-6,7,8,9-tetrahydro-pyrimido[4,5-b]indolizine-10-carboxylic acid amide]: the EC50 in test [2] was 117 nM.
